Measured values from publication PMC11667158, “Flexible fluorine-thiol displacement stapled peptides with enhanced membrane penetration for the estrogen receptor/coactivator interaction” (The Journal of Biological Chemistry, 2024).

Legend:
[1] = Circular dichroism, percent α helicity; format: physicochemical; settings: CD, 222 nm MRE, 50 μM peptide, room temperature
Source text: CD spectra were obtained using a J-815 CD spectrometer (Jasco) using the wavelength range of 190 to 260 nm. Spectra were collected in a 10 mm quartz cuvette and each spectrum represents the accumulation of three solvent-blank subtracted runs. Data were collected using the following system parameters: bandwidth of 1.00 nm, digital integration time of 2 s, pitch of 1.0 nm, and a scan speed of 50 nm/min. Data underwent minimal adaptive smoothing, and all the related spectra were taken at room temperature under inert nitrogen flow. Peptides were solubilized to 50 μM in either Milli-Q water, 45 mM sodium phosphate buffer (pH 7.4), 30 mM SDS (pH 7.4), or 50% (v/v) TFE. Percentage of α helicity was calculated based on the ellipticity value at 222 nm as done previously ([25], [63]), following the equation α helicity (%)=([ϴ]obs222-[ϴ]0)/([ϴ]max222-[ϴ]0) where [ϴ]max222 = (−44,000 + 250T) (1-x/n), [ϴ]0 = […], T = 20 °C, x = 3, n = number of residues ([25], [63]).

MCF-7 ER + cells = assay: Soft agar colony formation assay (anchorage independent growth); format: cell-based; settings: MCF-7, E2 1 nM, peptide 20 μM, 14 to 18 days
Description: Figure 6 Soft agar colony formation assay. (A) soft agar average colony size and (B) average colony formation in MCF-7 ER + cells assessed in the presence of vehicle (EtOH), E2 (1 nM), and the indicated peptide treatments (WT, LL, or LD) at 20 μM. Graphed data represent the mean ± SD (n = 6). An ordinary one-way ANOVA was used to assess statistical significance where ‘∗’ indicates p < 0.05, ‘∗∗’ indicates p < 0.01, ‘∗∗∗’ indicates p < 0.001. ER, estrogen receptor.
Cells were seeded (1.5 × 10^4 cells/well) in 1X sterile low melt agarose (Life Technologies) containing 5% dextran-coated charcoal and the appropriate treatment. Soft agar assays were allowed to proceed for 14 to 18 days at 37 °C. Afterward, cell colonies were stained with 0.005% crystal violet in PBS. Colony number and colony size were analyzed with ImageJ (Wayne Rasband, National Institutes of Health, http://rsbweb.nih.gov/ij/). Data are presented as the average ± SD of six independent measurements.

[2] = biological target: SRC2-LD, FTDR-stapled, FITC-labelled; assay: fluorescence polarisation; saturation fluorescence anisotropy; ERα-LBD serially diluted to 0.4-7500 nM with 17β-estradiol at four equivalents to ERα; FITC-peptide 50 nM; 10 mM Hepes pH 7.4, 50 mM EDTA, 150 mM NaCl, 0.005% Tween-20; 96-well plates
[3] = biological target: SRC2-LL, FTDR-stapled, FITC-labelled; assay: as above

Row | α-helicity (%) ([1]; 30 mM SDS micellar solution, pH 7.4) | α-helicity (%) ([1]; 45 mM sodium phosphate buffer, pH 7.4) | α-helicity (%) ([1]; 50% (v/v) TFE in water, pH 7.4) | α-helicity (%) ([1]; Water) | fold increase in Kd against SRC2-RCM [2] [fold] | fold increase in Kd against SRC2-RCM [3] [fold] | Substance | downregulation of colony size compared to the vehicle (MCF-7 ER + cells) [%] | average colony size (MCF-7 ER + cells; n = 6)
1 | 57.9 | 17 | 84 | 12.8 | – | – | HKILHRLLQDS [SRC2-WT] | 19 | 10,193 μm^2
2 | – | – | – | – | 1.2 | 1.5 | estrogen receptor α ligand-binding domain (domain or fragment) | – | –
